# Measured values from paper PMC9181887, “In Vitro Antithrombotic, Hematological Toxicity, and Inhibitor Studies of Protocatechuic, Isovanillic, and p-Hydroxybenzoic Acids from Maclura tricuspidata (Carr.) Bur” (Molecules, 2022).
# pIC50, pKi: −log10 of the molar value. Read-outs that look alike come from different tables or passages of the source.
# What was measured:
# [1] = system: fibrin polymers and clots (fibrinogen, thrombin, CaCl2); experiment: Turbidity assay of fibrin polymer/clot formation; type: biochemical, Human; settings: 1, 2, 5, 10, and 20 μg; 2000 s
# Procedure: Inhibition of fibrin clot formation was determined using a turbidity assay as previously described. The reaction mixtures were prepared by the addition of the compounds, 10 IU u-PA as a positive control (PC), or vehicle as a negative control (NC) 2 in a volume of 100 μL of 5 mM CaCl2, 0.5 U/mL of thrombin, and […] fibrinogen in 20 mM Tris-HCl (pH 7.4). The mixture was incubated for 5 min at 37 °C, and turbidity was monitored at 405 nm every 1 min for 2000 s using a microplate reader (Molecular Devices, Sunnyvale, CA, USA). The clot density was presented as a percentage of inhibition.
# human thrombin = target: T1, human thrombin (Homo sapiens, UniProt P00734); experiment: Thrombin activity and kinetic/inhibitor assay; type: biochemical; settings: for inhibition type against thrombin: from Kik/Kiv ratio and Lineweaver–Burk plots; for activity of thrombin: highest concentration of each compound, p < 0.01; for pIC50 / pKi / Kik/Kiv / Kcat / Vmax: thrombin; for Vmax value of thrombin decreased by, fold of non-treated: vs non-treated 0.381 ± 0.011 mU/min; for Vmax value of thrombin decreased by, fold of non-treated / Km value of thrombin reduced by, fold of non-treated / Kcat values of thrombin reduced by, fold of non-treated: compound 0.065–1.3 mM; for Km value of thrombin reduced by, fold of non-treated: vs non-treated 0.566 ± 0.025 mM; for Kcat values of thrombin reduced by, fold of non-treated: vs non-treated 109.87 ± 3.16 s^−1
# T1 construct: purchased Sigma-Aldrich
# Procedure: (§1) To determine the thrombin activity, various concentrations of compounds were treated with 1 U human thrombin in 100 μL of 20 mM Tris-HCl, as previously described. The reaction solutions were incubated for 15 min at 37 °C. After the incubation, 1 mM chromogenic substrate for thrombin (S-2238, HD-Phe-Pip-Arg-p-nitroanilide) was added and incubated for 1 h at 37 °C. Absorbance was measured at 405 nm to determine the enzymatic activity. To determine FXa activity, various concentrations of the compounds were mixed with 1 U human FXa in 20 mM Tris-HCl (pH 7.4) in volume of 100 μL, followed by incubation for 15 min at 37 °C. After adding 1 mM N-benzoyl-Ile-Glu-Gly-Arg-p-nitroanilide, a highly specific chromogenic peptide substrate for FXa, the reaction solutions were incubated for 1 h at 37 °C. The residual activity of FXa was measured at 405 nm and is presented as a percentage of inhibition. To investigate FXIIIa activity, various concentrations of the compounds were mixed with 1 U human FXIIIa in 20 mM Tris-HCl (pH 7.4) in a volume of 100 μL, followed by, incubation for 15 min at 37 °C as previously described. The residual activity of FXIIIa was measured using casein and fibrinogen-HRP, according to the manufacturer’s instructions, and was presented as a percentage of inhibition. The negative control was generated by treatment with only thrombin, FXa, or FXIIIa without treatment with any compound.
# (§2) Kinetic assays were performed using PA, IVA, and 4-HA for procoagulant proteases (thrombin and FXa) and fibrinoligase (FXIIIa). The kinetic constants were calculated using Lineweaver–Burk plots based on the initial reaction rates with different concentrations (0.1, 0.5, 1, and 2 mM) of each substrate for thrombin, FXa, and FXIIIa treated with or without the compounds (0.065, 0.13, 0.33, 0.65, and 1.30 mM [1–20 μg]) in a total volume of 100 μL. The Michaelis–Menten constant (Km) and maximal velocity (Vmax) were calculated from the x and y intercepts, respectively. […] The median inhibitory concentration (IC50) was defined as the concentration required to reach a 50% reduction in the activity of the three target factors. The Kik and Kiv inhibition constants were calculated using a previously described method. The inhibition type of the compounds against the three target factors was evaluated according to a previously described inhibition type definition.
# platelets = experiment: Hematological study, platelet count by hemocytometer; type: cell-based; settings: 10 min, vs control
# Procedure: (§3) Figure 1 Blood cytotoxic effect of PA (A), IVA (B), and 4-HA (C). Aliquots of washed platelets (10^3/mL), erythrocytes (10^6/mL), and leukocytes (10^3/mL) were treated with or without the compounds for 10 min and cell number was determined by hemocytometer counts. Each value is the mean ± SD of triplicate measurements. * p < 0.05 and ** p < 0.01, compared to each control groups. 10–500, 10–100 μg of each compound treated.
# (§4) Total white blood cells (leukocytes) and red blood cells (erythrocytes) were counted using a hemocytometer, as previously described. Blood was diluted 1:200 with Hayem’s fluid and the cells were counted in a loaded hemocytometer chamber. To count the blood platelets, blood was diluted in a ratio of 1:20 with a diluting fluid, and four large (1 mm^2) corner squares of the hemocytometer were counted under a light microscope. Aliquots of leukocytes (0.1 mL; 10^3/mL), erythrocytes (0.1 mL; 10^6/mL), and platelets (0.1 mL; 10^3/mL) were treated with or without the compounds for 10 min.
# leukocytes = experiment: Hematological study, leukocyte count by hemocytometer; type: cell-based; settings: 10 min, vs control
# Procedure: as §3, §4
# human FXa = target: T2, human FXa (Homo sapiens, UniProt P00742); experiment: FXa activity and kinetic/inhibitor assay; type: biochemical; settings: for FXa activity: 1–20 μg, vs control, p < 0.05; for pIC50 / Kik/Kiv / Kcat / Vmax / pKi: FXa; for inhibition type against FXa: from Kik/Kiv ratio and Lineweaver–Burk plots
# T2 construct: purchased Sigma-Aldrich
# T2 sequence (P00742 235-488 limits assumed): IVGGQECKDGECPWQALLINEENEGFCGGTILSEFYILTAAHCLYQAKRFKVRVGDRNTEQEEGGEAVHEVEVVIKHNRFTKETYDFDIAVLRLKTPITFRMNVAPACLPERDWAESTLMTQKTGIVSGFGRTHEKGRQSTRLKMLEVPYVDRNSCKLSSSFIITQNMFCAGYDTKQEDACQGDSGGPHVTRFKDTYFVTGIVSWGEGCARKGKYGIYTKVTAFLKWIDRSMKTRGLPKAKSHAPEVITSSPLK
# T2 sequence (P00742 41-179 limits assumed): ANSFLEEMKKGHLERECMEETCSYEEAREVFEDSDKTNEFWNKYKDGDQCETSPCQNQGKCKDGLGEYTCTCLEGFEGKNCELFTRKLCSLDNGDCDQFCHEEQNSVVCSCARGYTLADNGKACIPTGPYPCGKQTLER
# Procedure: as §1, §2
# [2] = read-out: Kiv (inhibition constant using Vmax)
inhibition type against thrombin (human thrombin),activity of thrombin (human thrombin),pIC50 (human thrombin),pKi (human thrombin),Kik/Kiv (human thrombin),Kcat (human thrombin; compound 0.065 mM (1 μg)) [s⁻¹],Vmax (human thrombin; compound 0.065 mM (1 μg)) [mU/min],Kcat (human thrombin; compound 0.13 mM (2 μg)) [s⁻¹],Vmax (human thrombin; compound 0.13 mM (2 μg)) [mU/min],Kcat (human thrombin; compound 0.325 mM (5 μg)) [s⁻¹],Vmax (human thrombin; compound 0.325 mM (5 μg)) [mU/min],Kcat (human thrombin; compound 0.65 mM (10 μg)) [s⁻¹],Vmax (human thrombin; compound 0.65 mM (10 μg)) [mU/min],Kcat (human thrombin; compound 1.3 mM (20 μg)) [s⁻¹],Vmax (human thrombin; compound 1.3 mM (20 μg)) [mU/min],"Vmax value of thrombin decreased by, fold of non-treated (human thrombin)","Kcat values of thrombin reduced by, fold of non-treated (human thrombin)",FXa activity (human FXa),pIC50 (human FXa),Structure (SMILES),fibrin polymer/clot formation (turbidity at 405 nm) [1],further results
uncompetitive inhibition type,significantly decreased,2.77,2.77,1.2,100.59 ± 1.41,0.349 ± 0.013,98.38 ± 1.24,0.341 ± 0.015,91.57 ± 0.98,0.317 ± 0.016,89.25 ± 0.77,0.309 ± 0.020,78.83 ± 1.01,0.273 ± 0.013,0.72–0.92 fold,0.72–0.92 fold,significant reductions,2.40,"O=C(O)c1ccc(O)cc1 [4-HA, 4-hydroxybenzoic acid]",dose-dependently inhibited,"Km value of thrombin reduced by, fold of non-treated (human thrombin): 0.71–0.86 fold; effect on platelet number (platelets; 10–50 μg/mL): did not cause any effect; effect on leukocyte number (leukocytes; 10–50 μg/mL): did not cause any effect; Kik/Kiv (human FXa): 5.3; Kcat (human FXa; compound 0.065 mM (1 μg)): 22.14 ± 0.22 s⁻¹; Vmax (human FXa; compound 0.065 mM (1 μg)): 0.60 ± 0.03 mU/min; Kcat (human FXa; compound 0.13 mM (2 μg)): 21.77 ± 0.26 s⁻¹; Vmax (human FXa; compound 0.13 mM (2 μg)): 0.59 ± 0.02 mU/min; Kcat (human FXa; compound 0.325 mM (5 μg)): 21.79 ± 0.44 s⁻¹; Vmax (human FXa; compound 0.325 mM (5 μg)): 0.59 ± 0.04 mU/min; Kcat (human FXa; compound 0.65 mM (10 μg)): 21.18 ± 0.42 s⁻¹; Vmax (human FXa; compound 0.65 mM (10 μg)): 0.57 ± 0.02 mU/min; Kcat (human FXa; compound 1.3 mM (20 μg)): 20.22 ± 0.37 s⁻¹; Vmax (human FXa; compound 1.3 mM (20 μg)): 0.55 ± 0.02 mU/min; pKi (human FXa; read-out: Ki): 2.40; pKi (human FXa; [2]): 3.96; inhibition type against FXa (human FXa): non-competitive inhibition"
uncompetitive inhibition type,significantly decreased,3.03,3.03,1.1,87.72 ± 1.32,0.304 ± 0.013,94.13 ± 2.08,0.326 ± 0.018,67.14 ± 0.93,0.233 ± 0.010,54.42 ± 0.81,0.189 ± 0.007,48.31 ± 1.05,0.167 ± 0.008,0.44–0.86 fold,0.43–0.86 fold,significant reductions,2.38,"COc1ccc(C(=O)O)cc1O [IVA, isovanillic acid]",dose-dependently inhibited,"Km value of thrombin reduced by, fold of non-treated (human thrombin): 0.52–0.93 fold; effect on platelet number (platelets; 10–50 μg/mL): did not cause any effect; effect on leukocyte number (leukocytes; 10–50 μg/mL): did not cause any effect; Kik/Kiv (human FXa): 5.6; Kcat (human FXa; compound 0.065 mM (1 μg)): 24.20 ± 0.27 s⁻¹; Vmax (human FXa; compound 0.065 mM (1 μg)): 0.66 ± 0.04 mU/min; Kcat (human FXa; compound 0.13 mM (2 μg)): 22.34 ± 0.41 s⁻¹; Vmax (human FXa; compound 0.13 mM (2 μg)): 0.61 ± 0.02 mU/min; Kcat (human FXa; compound 0.325 mM (5 μg)): 22.23 ± 0.35 s⁻¹; Vmax (human FXa; compound 0.325 mM (5 μg)): 0.60 ± 0.03 mU/min; Kcat (human FXa; compound 0.65 mM (10 μg)): 20.67 ± 0.32 s⁻¹; Vmax (human FXa; compound 0.65 mM (10 μg)): 0.56 ± 0.03 mU/min; Kcat (human FXa; compound 1.3 mM (20 μg)): 18.56 ± 0.30 s⁻¹; Vmax (human FXa; compound 1.3 mM (20 μg)): 0.50 ± 0.04 mU/min; pKi (human FXa; read-out: Ki): 2.38; pKi (human FXa; [2]): 4.12; inhibition type against FXa (human FXa): non-competitive inhibition"

Structure (SMILES),inhibition type against thrombin (human thrombin),activity of thrombin (human thrombin),pIC50 (human thrombin),pKi (human thrombin),Kik/Kiv (human thrombin),Kcat (human thrombin; compound 0.065 mM (1 μg)) [s⁻¹],Vmax (human thrombin; compound 0.065 mM (1 μg)) [mU/min],Kcat (human thrombin; compound 0.13 mM (2 μg)) [s⁻¹],Vmax (human thrombin; compound 0.13 mM (2 μg)) [mU/min],Kcat (human thrombin; compound 0.325 mM (5 μg)) [s⁻¹],Vmax (human thrombin; compound 0.325 mM (5 μg)) [mU/min],Kcat (human thrombin; compound 0.65 mM (10 μg)) [s⁻¹],Vmax (human thrombin; compound 0.65 mM (10 μg)) [mU/min],Kcat (human thrombin; compound 1.3 mM (20 μg)) [s⁻¹],Vmax (human thrombin; compound 1.3 mM (20 μg)) [mU/min],"Vmax value of thrombin decreased by, fold of non-treated (human thrombin)","Kcat values of thrombin reduced by, fold of non-treated (human thrombin)",FXa activity (human FXa),pIC50 (human FXa),fibrin polymer/clot formation (turbidity at 405 nm) [1],further results
"O=C(O)c1ccc(O)c(O)c1 [PA, protocatechuic acid]",mixed inhibition type,significantly decreased,2.96,2.96,125.4,101.67 ± 1.44,0.352 ± 0.019,93.29 ± 1.60,0.323 ± 0.021,85.00 ± 2.13,0.295 ± 0.015,71.98 ± 1.95,0.249 ± 0.009,69.08 ± 1.15,0.239 ± 0.008,0.65–0.92 fold,0.63–0.93 fold,significant reductions,2.51,dose-dependently inhibited,effect on platelet number (platelets; 10–100 μg/mL): did not cause any effect; effect on leukocyte number (leukocytes; 10–100 μg/mL): did not cause any effect; Kik/Kiv (human FXa): 1.6; Kcat (human FXa; compound 0.065 mM (1 μg)): 21.36 ± 0.54 s⁻¹; Vmax (human FXa; compound 0.065 mM (1 μg)): 0.58 ± 0.03 mU/min; Kcat (human FXa; compound 0.13 mM (2 μg)): 17.35 ± 0.48 s⁻¹; Vmax (human FXa; compound 0.13 mM (2 μg)): 0.47 ± 0.02 mU/min; Kcat (human FXa; compound 0.325 mM (5 μg)): 14.67 ± 0.25 s⁻¹; Vmax (human FXa; compound 0.325 mM (5 μg)): 0.40 ± 0.02 mU/min; Kcat (human FXa; compound 0.65 mM (10 μg)): 12.09 ± 0.29 s⁻¹; Vmax (human FXa; compound 0.65 mM (10 μg)): 0.33 ± 0.01 mU/min; Kcat (human FXa; compound 1.3 mM (20 μg)): 11.62 ± 0.31 s⁻¹; Vmax (human FXa; compound 1.3 mM (20 μg)): 0.32 ± 0.01 mU/min; pKi (human FXa; read-out: Ki): 2.51; pKi (human FXa; [2]): 4.64; inhibition type against FXa (human FXa): uncompetitive inhibition type
